# In PubChem BioAssay AID1919013 (Molecular Pharmacology Branch, DTP, NCI, 2023):
# Test system: LG0703-F498-PDC complex spheroid growth
# Assay: Anticancer human tumor LG0703-F498-PDC patient-derived lung adenocarcinoma cell line growth inhibition [AhR]
# Details: for IC50: curve of first compound; for viability, T/C: stronger effect = lower value
# How it was run: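 Agents were dosed in half-log steps down from roughly clinical Cmax, or from 10 microM where Cmax was unknown, alone and with AhR antagonists. Read-out: percent test/control growth of tumor spheroids containing HUVEC and MSC stromal cells.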
# [1] = second compound 0.1 µM, first compound 0.0316 µM
# [2] = second compound 0.1 µM, first compound 0.1 µM
# [3] = second compound 0.1 µM, first compound 0.316 µM
# [4] = second compound 0.1 µM, first compound 1 µM
# [5] = second compound 0.1 µM, first compound 3.16 µM
# [6] = second compound 0.1 µM, first compound 10 µM
# [7] = second compound 0.316 µM, first compound 0.0316 µM
# [8] = second compound 0.316 µM, first compound 0.1 µM
# [9] = second compound 0.316 µM, first compound 0.316 µM
# [10] = second compound 0.316 µM, first compound 1 µM
# [11] = second compound 0.316 µM, first compound 3.16 µM
# [12] = second compound 0.316 µM, first compound 10 µM
# [13] = second compound 1 µM, first compound 0.0316 µM
# [14] = second compound 1 µM, first compound 0.1 µM
# [15] = second compound 1 µM, first compound 0.316 µM
# [16] = second compound 1 µM, first compound 1 µM
# [17] = second compound 1 µM, first compound 3.16 µM
# [18] = second compound 1 µM, first compound 10 µM
# [19] = second compound 3.16 µM, first compound 0.0316 µM
# [20] = second compound 3.16 µM, first compound 0.1 µM
# [21] = second compound 3.16 µM, first compound 0.316 µM
# [22] = second compound 3.16 µM, first compound 1 µM
# [23] = second compound 3.16 µM, first compound 3.16 µM
# [24] = second compound 3.16 µM, first compound 10 µM
# [25] = second compound 10 µM, first compound 0.0316 µM
# [26] = second compound 10 µM, first compound 0.1 µM
# [27] = second compound 10 µM, first compound 0.316 µM
# [28] = second compound 10 µM, first compound 1 µM
# [29] = second compound 10 µM, first compound 3.16 µM
# [30] = second compound 10 µM, first compound 10 µM
# 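Note: luminescence taken as a proxy for viable cell amount.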
# 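Throughout, for viability, T/C: percent of DMSO vehicle control where 100% means growth equal to vehicle.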
IC50 (second compound 0.1 µM),IC50 (second compound 0.316 µM),IC50 (second compound 1 µM),IC50 (second compound 3.16 µM),IC50 (second compound 10 µM),SMILES,"viability, T/C [1]","viability, T/C [2]","viability, T/C [3]","viability, T/C [4]","viability, T/C [7]","viability, T/C [8]","viability, T/C [9]","viability, T/C [10]","viability, T/C [13]","viability, T/C [14]","viability, T/C [15]","viability, T/C [16]","viability, T/C [19]","viability, T/C [20]","viability, T/C [21]",also measured
> 10000 nM,> 10000 nM,> 10000 nM,5510 nM,< 31.6 nM,COc1cc(C2c3cc4c(cc3C(OC3OC5COC(C)OC5C(O)C3O)C3COC(=O)C23)OCO4)cc(OC)c1O (stereo not given) + Cc1cncc(-c2nc(NCCc3c[nH]c4ccccc34)c3ncn(C(C)C)c3n2)c1,105%,96.7%,102%,93.8%,112%,110%,96.8%,85.4%,89.7%,126%,115%,93.3%,60.3%,64.1%,62.8%,"viability, T/C [5]: 84.6%; viability, T/C [6]: 63.4%; viability, T/C [11]: 77.9%; viability, T/C [12]: 71.5%; viability, T/C [17]: 72.2%; viability, T/C [18]: 64.5%; viability, T/C [22]: 54.3%; viability, T/C [23]: 51.6%; viability, T/C [24]: 47.9%; viability, T/C [25]: 1.19%; viability, T/C [26]: 1.35%; viability, T/C [27]: 1.7%; viability, T/C [28]: 1.47%; viability, T/C [29]: 1.3%; viability, T/C [30]: 2.49%"
< 31.6 nM,< 31.6 nM,< 31.6 nM,< 31.6 nM,< 31.6 nM,Nc1ccn(C2OC(CO)C(O)C2(F)F)c(=O)n1 (stereo not given) + Cc1cncc(-c2nc(NCCc3c[nH]c4ccccc34)c3ncn(C(C)C)c3n2)c1,40.6%,36.2%,31.3%,28.9%,39.7%,37.6%,35%,28.1%,33.5%,40%,32.2%,28.8%,24.4%,26.7%,29.4%,"viability, T/C [5]: 28.2%; viability, T/C [6]: 18.8%; viability, T/C [11]: 26.4%; viability, T/C [12]: 17.9%; viability, T/C [17]: 24.1%; viability, T/C [18]: 19.9%; viability, T/C [22]: 19.5%; viability, T/C [23]: 18.1%; viability, T/C [24]: 17.9%; viability, T/C [25]: 0.88%; viability, T/C [26]: 1.65%; viability, T/C [27]: 1.55%; viability, T/C [28]: 1.08%; viability, T/C [29]: 1.14%; viability, T/C [30]: 1.93%"
> 1000 nM,> 1000 nM,> 1000 nM,> 1000 nM,< 3.16 nM,Nc1ncn(C2CC(O)C(CO)O2)c(=O)n1 (stereo not given) + Cc1cncc(-c2nc(NCCc3c[nH]c4ccccc34)c3ncn(C(C)C)c3n2)c1,94.8%,84.4%,79.9%,86.4%,88%,86.8%,81.9%,79.9%,98.7%,89.3%,89.3%,87.2%,58.5%,64.3%,55.1%,"viability, T/C (second compound 0.1 µM, first compound 0.00316 µM): 85.7%; viability, T/C (second compound 0.1 µM, first compound 0.01 µM): 98%; viability, T/C (second compound 0.316 µM, first compound 0.00316 µM): 109%; viability, T/C (second compound 0.316 µM, first compound 0.01 µM): 102%; viability, T/C (second compound 1 µM, first compound 0.00316 µM): 106%; viability, T/C (second compound 1 µM, first compound 0.01 µM): 116%; viability, T/C (second compound 3.16 µM, first compound 0.00316 µM): 56%; viability, T/C (second compound 3.16 µM, first compound 0.01 µM): 59.8%; viability, T/C [22]: 60%; viability, T/C (second compound 10 µM, first compound 0.00316 µM): 1.37%; viability, T/C (second compound 10 µM, first compound 0.01 µM): 1.38%; viability, T/C [25]: 1.23%; viability, T/C [26]: 1.12%; viability, T/C [27]: 1.02%; viability, T/C [28]: 1.63%"
